This is an account of results in paper PMC5719405, “Sex-related pharmacokinetic differences and mechanisms of metapristone (RU486 metabolite)” (Scientific Reports, 2017).

The nature of series [1]: In vitro microsomal metabolism of metapristone. The following applies: for metapristone remained: 2 h; for degradation of metapristone: 37 °C, 1 h. The format is in vitro ADME, rat. Here is the method: The microsomal assay was similar to that described previously. Briefly, metapristone (6, 9, 13.5 µM) was incubated with male and female at liver microsomes, respectively, in an NADPH-generating system containing 1 mM NADP, 10 mM glucose-6-phosphate, 1 U/mL glucose-6-phosphate dehydrogenase and 4 mM MgCl2 in 100 mM potassium phosphate buffer (pH 7.4). Reaction mixtures were prepared in duplicate and were pre-incubated for 5 min at 37 °C. The actions were then initiated by the addition of NADPH solution. The final volume of each reaction mixture was 200 µL. Negative control reactions were prepared by incubating mixtures that excluded metapristone from the mixture. For negative control incubation where microsomes were excluded, they were added back to the reaction mixture after quenching with methanol. Samples were removed at 0, 40, 60, 80,100, 120 and 150 min, and vortex-mixed with cold ethyl acetate to stop the reaction. After centrifugation, a portion of each resulting supernatant was analyzed by mass spectrometry for unchanged metapristone.

Another series deals with CYP1A2. The series is described as follows: Western blotting of rat liver CYP1A2 after 7-day oral metapristone. The format is in vivo. Here is the method:
(§1) To further confirm CYP1A2 and CYP3A4 are the primary CYP isoforms that metabolize metapristone, we administered oral metapristone (22.5 and 45 mg/kg/day for 7 days) to male and female rats, respectively, and measured the activity of liver CYP1A2 and CYP3A4 by using the western blotting assay. We selected western blot staining density from the controls as the basis (100%) to compare changes in CYP1A2 and CYP3A4 activity after metapristone treatment.
(§2) The total microsomal protein was extracted from rat livers prepared by diluting liver microsomal suspension with 1 volume of immunoprecipitation assay lysis buffer (150 mM NaCl, 1% NP-40, 0.5% sodium deoxy-cholic acid, 0.1% SDS, and 50 mM Tris-Cl, pH 7.5) for 15 min and then centrifuged at 13,000 rpm 4 °C for 10 min. Aliquots containing 20 µg of protein were separated by SDS-PAGE on a 10% gradient gel (Invitrogen, USA) and transferred to a PVDF membrane that was blocked with 5% non-fat dry milk in Tris-buffered saline with Tween 20 (200 mM Tris–HCl, 1.37 M NaCl, 0.1% Tween 20, pH 7.6) for 1 h. The membrane was then incubated with rabbit anti-rat CYP1A2 polyclonal antibody (1:2000 dilution), rabbit anti-rat CYP3A4 polyclonal antibody (1:1000 dilution) and glyceraldehyde-3-phosphate dehydrogenase (GAPDH) antibody (1:2000 dilution), overnight at 4 °C. After rinsing five times with buffer TBST at room temperature, the membrane was incubated with horseradish peroxidase (HRP)-labeled anti-rabbit immunoglobulin G (IgG) anti-body (Santa Cruz Biotechnology, USA). The immunoreactive bands were visualized using an enhanced chemiluminescence detection system (ChemiDoc™XRS + , Bio-Rad, Hercules, CA, USA) and quantified by using densitometry Image J 1.41 software.
For orientation: In western blotting, separated proteins are transferred to a membrane and probed.

For series [2] the following is noted: rats, 12.5, 50 and 200 mg/kg/day; only occurred at 200 mg/kg/day; cited from earlier work.
A further series relates to CYP3A4. As to the kind of experiment: Western blotting of rat liver CYP3A4 after 7-day oral metapristone. The format is in vivo. Here is the method: as §1, §2
Series [3] can be described thus: Repeated 10-day oral dosing, accumulation of metapristone in blood. The format is in vivo. The note with it: rats, 45 mg/kg/day p.o. for 10 days, 6 h post dosing. Here is the method:
In order to determine whether metapristone accumulated in blood over a long period of multiple dose administration, metapristone levels in blood were monitored at 6 h post dosing on day 1 and 10 during a consecutive 10-day oral dosing period with metapristone at 45 mg/kg/day.
For pharmacokinetic study, rats were fasted overnight with free access to water using procedures reported previously. Ninety-six SD rats (forty-eight males and forty-eight females) were randomly divided into eight single-dose groups. Rats (six animals/sex/dose) were given a single oral dose of 22.5, 45 and 90 mg/kg metapristone (in soybean oil solution) by intragastric administration or 10 mg/kg metapristone by intravenous bolus injection. Rat blood samples (0.25 mL) were collected from the ocular vein into heparinized tubes prior to and at 0 (before administration), 0.5, 1.0, 1.5, 2.0, 4.0, 6.0, 8.0, 12, 24, 36 and 48 h post-dosing in female rats or 0.5, 1.0, 1.5, 2.0, 4.0, 6.0, 8.0, 12, 24, 30 and 36 h post-dosing in male rats. In the repeated dose study twenty-four rats (six animals/sex/dose) received the same dosing regimen at 45 mg/kg metapristone for 10 days. Blood samples were collected after oral administration on day 1 and 10 at T max. The samples were stored at −80 °C until analysis. […]

The next series has as its system cancer cells. The following applies: cited from earlier work.
Setting [4] is: female rats, 22.5 mg/kg/day p.o. for 7 days.
Where [5] appears, read: female rats, 45 mg/kg/day p.o. for 7 days.
[6] abbreviates: male rats, 22.5 mg/kg/day p.o. for 7 days.
Setting [7] is: male rats, 45 mg/kg/day p.o. for 7 days.

SMILES strings stand for the structures.

Regarding `CC#C[C@]1(O)CC[C@H]2[C@@H]3CCC4=CC(=O)CCC4=C3[C@@H](c3ccc(NC)cc3)C[C@@]21C` [metapristone, N-monodemethyl mifepristone], the metapristone remained is 21.9% in series [1] (female rat liver microsomes, 6 µM); 27.2% in series [1] (female rat liver microsomes, 9 µM); 37.3% in series [1] (female rat liver microsomes, 13.5 µM); 10.2% in series [1] (male rat liver microsomes, 6 µM); 14.2% in series [1] (male rat liver microsomes, 9 µM); 29.6% in series [1] (male rat liver microsomes, 13.5 µM). Further, the degradation of metapristone in series [1] (female rat liver microsomes, 6, 9 and 13.5 µM) is reported as 35.1–48.9%; in series [1] (male rat liver microsomes, 6, 9 and 13.5 µM), 47.4–67.6%. For the same compound, the “CYP1A2 western blot staining density relative to controls (100%)” value in the series with CYP1A2 (setting [4]) came out at 120 ± 16%; with CYP1A2 (setting [5]), 147 ± 21%; in the series on CYP1A2 (setting [6]), 156 ± 19%; in the series on CYP1A2 (setting [7]), 163 ± 12%. Besides, in series [2], the “hepatotoxicity after thirty-day oral administration” value is “reversible hepatotoxicity”. In addition, the “CYP3A4 western blot staining density relative to controls (100%)” value with CYP3A4 (setting [4]) is 107 ± 13%; in the series with CYP3A4 (setting [5]), 128 ± 12%; in the series with CYP3A4 (setting [6]), 115 ± 14%; in the series with CYP3A4 (setting [7]), 153 ± 17%. In addition, in series [3], the “accumulation of metapristone in blood, day 10 versus day 1” value is given as “about 6 fold”. Besides, the “effect on cancer cells” value in the series with cancer cells is recorded as “cytostatic effect”.
